According to paper PMC13326014 (Advanced Science, 2026):
Read-outs that look alike come from different tables or passages of the source. Each block holds one compound with its values, some of them ahead of it. Peptide text beside a SMILES is read from it.

Key:
[1] = target: T1, hIAPP (Homo sapiens, UniProt P10997); test: 1D 1H NMR loss of hIAPP signal (oligomerization kinetics); assay type: biochemical; conditions: 50 µM hIAPP, three‐fold excess (150 µM) inhibitor, PBS, 37°C
T1 construct: hIAPP (1–37; cat. # RP11278); purchased GenScript (Netherlands) RP11278; host or cells: chemical synthesis
T1 sequence (P10997 34-70): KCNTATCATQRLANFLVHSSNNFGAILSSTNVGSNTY
Procedure: • – hIAPP/QBP1 interaction experiments. 1D ^1H and 2D ^1H‐^1H total correlation spectroscopy (TOCSY) (mixing time = 60 ms) and 2D ^1H‐^1H nuclear Overhauser effect spectroscopy (NOESY) (mixing times = 80 and 250 ms) spectra were recorded at 10°C in 90% H2O/ 10% D2O with 1 mM K2HPO4 and 1 mM sodium acetate buffer (pH 5.5) on 100 µM hIAPP (pre‐monomerized in a small volume of hexadeuterated DMSO) on a Bruker 800 MHz (^1H) spectrometer equipped with a ^1H, ^13C, ^15N cryoprobe, Neo console and z‐gradients. These conditions were chosen because they were previously reported to greatly slow the aggregation of hIAPP, affording time to allow the spectra to be recorded. The solutions also contained 100 µM DSS as the internal chemical shift reference. Spectra were assigned with the aid of the program POKY [62], and the assignments have been deposited in the BMRB database; with access code = 53405. […] The spectra were then analyzed for changes which could reveal atomic‐level details on the interaction between hIAPP and QBP1. • – hIAPP aggregation experiments. A second set of NMR experiments were performed in PBS (90% H2O/ 10% D2O) at 37°C. […] These experiments were performed on a Bruker 600 MHz (^1H) spectrometer equipped with a ^1H, ^13C, ^15N, ^31P cryoprobe, Neo console, and z‐gradients. The final sample pH was verified in situ based on the phosphate ^3 ^1P chemical shift.

[2] = test system: INS‐1E β‐cells; test: AlamarBlue metabolic activity, exogenous hIAPP oligomers
Procedure: Dried hIAPP or rIAPP peptide (0.5 mg) was reconstituted in 10 mM phosphate‐buffered saline (PBS, pH 7.4) with 2% DMSO and 2 mM sodium azide to a final concentration of 300 µM. rIAPP was included as a non‐amyloidogenic control peptide. After centrifugation at 16 000 x g for 50 min at 4°C to remove preformed aggregates, the supernatant (designated as “time zero”)—primarily populated by monomers—was used to initiate amyloidogenesis. Samples were vortexed and incubated at 25°C for 7 days without agitation to allow gradual formation of oligomers and fibrils. […] Aliquots were collected at different time points for biochemical characterization and β‐cells assays. For β‐cell assays involving extracellular hIAPP oligomers, samples were sonicated before use to disrupt early fibrils and enrich for oligomeric species.
(§1) The fusion peptide was N‐terminally biotinylated and the two peptides were separated by two glycine residues as flexible linkers to minimize steric hindrance: Biotin‐[…]. • – Cell culture . […] Viability was assessed using the CellTiter‐Glo Luminescent Cell Viability Assay (Promega, Madison, WI, USA), which quantifies ATP content as an indicator of metabolically active cells, and AlamarBlue (Invitrogen, Thermo Fisher), based on the reduction of resazurin to the fluorescent product resorufin in metabolically active cells, following the manufacturer's instructions. Luminescence (CellTiter‐Glo) and fluorescence (AlamarBlue; Ex 560 nm / Em 590 nm) were recorded using a FLUOstar Omega microplate reader (BMG LABTECH). Morphological changes were monitored by phase‐contrast microscopy (Leitz DM IRB, Leica, Germany) equipped with a Peltier temperature controller (Linkam, UK) set to 37°C and a Leica K5 camera. Images from at least three fields per condition were acquired at 10× and 20× magnification and analyzed with Leica LAS AF Lite software.

[3] = test system: hIAPP‐induced cytotoxicity; conditions: cited from earlier work
[4] = test system: Rin1056A β‐cells; conditions: cited from earlier work
[5] = test system: INS‐1E β‐cells; test: ICC of Antp‐QBP1 uptake (anti‐biotin) in INS‐1E β‐cells; assay type: cell-based, rat; conditions: 48 h; for anti‐biotin (Red‐647) fluorescence intensity per cell: uptake by ICC
Procedure: (§2) Cells were seeded in 24‐well plates (Corning, cat. #3526) on 12 mm coverslips pre‐treated with 1 mg/mL poly‐D‐lysine (Merck, cat. #P2636) in borate buffer (pH 8.0) at a density of 200,000 cells/mL. […] Primary antibodies against hIAPP (rabbit anti‐hIAPP, 1:400; Sigma‐Aldrich), biotin (goat anti‐biotin, 1:200; Invitrogen, cat. # 31852), oligomers (A11, 1:400, Invitrogen, cat. # AHB0052) and fibrils (OC, 1:200, Millipore, cat. # AB2286) were applied overnight at 4°C. Fluorophore‐conjugated secondary antibodies (Invitrogen) were added for 1 h at RT in darkness, followed by DAPI nuclear staining for 15 min. Coverslips were mounted with ProLong Gold (Life Technologies) and imaged using either a Leica DMI 6000 fluorescence microscope or a Leica Stellaris 8 stimulated emission depletion (STED) super‐resolution microscope, both equipped with a 40× oil‐immersion objective.
ThT‐stained and ICC samples were imaged using a Leica Stellaris 8 STED super‐resolution confocal microscope (Leica Microsystems, Germany). For ThT imaging, samples in Ibidi μ‐Slide 4 Well ibiTreat coverslips were excited at 488 nm and emission was collected between 509–580 nm. For ICC, fluorophores were excited at 405 nm (DAPI; 420–480 nm, HyD S1), 488 nm (Alexa Fluor 488/FITC; 500–550 nm, HyD S2) and 653 nm (Alexa Fluor 647; 665–750 nm, HyD X3), all acquired sequentially in counting mode to prevent spectral overlap. […] Z‐stacks were collected in optimized mode to generate 3D reconstructions of ThT fluorescence and ICC labeling. Image processing and quantitative analysis were conducted using ImageJ/Fiji (NIH, USA). Specifically, a custom Fiji macro based on the “Find Maxima” algorithm was implemented to detect local intensity peaks across the selected fluorescence channels. Fluorescence intensity per cell (a.u.) was calculated as the total signal per field divided by the number of DAPI‐positive nuclei, and the number of fluorescence spots per cell was defined as total local maxima per field normalized to nuclei count. […]

[6] = test system: INS‐1E‐hIAPP cells; test: ICC of Antp‐QBP1 uptake in INS‐1E‐hIAPP cells; assay type: cell-based, rat; conditions: Antp‐QBP1 10 µM, 48 h
Procedure: (§3) Rat insulinoma–derived pancreatic β‐cell lines (INS‐1E, INS‐1E‐hIAPP, and INS‐1E‐Ct) were kindly provided by Dr. Anna Novials (IDIBAPS, Barcelona) and characterized as previously described. INS‐1E‐hIAPP cells, which stably express human IAPP, were used as an overexpression model, whereas INS‐1E‐Ct cells transfected with an empty vector served as controls.
as §2

[7] = test system: INS‐1E β‐cells; test: CellTiter‐Glo ATP viability, exogenous hIAPP oligomers; conditions: 48 h, 16.7 mM glucose
Procedure: Dried hIAPP or rIAPP peptide (0.5 mg) was reconstituted in 10 mM phosphate‐buffered saline (PBS, pH 7.4) with 2% DMSO and 2 mM sodium azide to a final concentration of 300 µM. rIAPP was included as a non‐amyloidogenic control peptide. After centrifugation at 16 000 x g for 50 min at 4°C to remove preformed aggregates, the supernatant (designated as “time zero”)—primarily populated by monomers—was used to initiate amyloidogenesis. Samples were vortexed and incubated at 25°C for 7 days without agitation to allow gradual formation of oligomers and fibrils. […] Aliquots were collected at different time points for biochemical characterization and β‐cells assays. […]
as §1, with “Morphological changes were monitored by phase‐contrast microscopy (Leitz DM IRB, Leica, Germany) equipped with a Peltier temperature controller (Linkam, UK) set to 37°C and a Leica K5 camera. Images from at least three fields per condition were acquired at 10× and 20× magnification and analyzed with Leica LAS AF Lite software.” left out

[8] = test system: INS‐1E‐Ct cells; test: CellTiter‐Glo ATP viability, empty‐vector control cells; assay type: cell-based, rat; conditions: Antp‐QBP1 5–20 µM, 48 h
Text: as §3
• – hIAPP overexpression conditions .

[9] = peptide alone, 48 h, Alamar Blue HS

Compound: epigallocatechin‐3‐gallate [EGCG]
slowing of the rate of hIAPP oligomerization (NMR signal loss) [1]: ~50%

effect of peptide alone on metabolic activity [2]: did not affect metabolic activity
Compound: CC(C)C[C@H](NC(=O)[C@H](CC(N)=O)NC(=O)[C@H](CC(N)=O)NC(=O)[C@H](CO)NC(=O)[C@H](CO)NC(=O)[C@H](CCCNC(=N)N)NC(=O)[C@@H](NC(=O)[C@H](CC(C)C)NC(=O)[C@H](Cc1ccccc1)NC(=O)[C@H](CC(N)=O)NC(=O)[C@H](C)NC(=O)[C@H](CC(C)C)NC(=O)[C@H](CCCNC(=N)N)NC(=O)[C@H](CCC(N)=O)NC(=O)[C@@H](NC(=O)[C@H](C)NC(=O)[C@@H]1CSSC[C@H](NC(=O)[C@@H](N)CCCCN)C(=O)N[C@@H](CC(N)=O)C(=O)N[C@@H]([C@@H](C)O)C(=O)N[C@@H](C)C(=O)N[C@@H]([C@@H](C)O)C(=O)N1)[C@@H](C)O)C(C)C)C(=O)NCC(=O)N1CCC[C@H]1C(=O)N[C@H](C(=O)N[C@@H](CC(C)C)C(=O)N1CCC[C@H]1C(=O)N1CCC[C@H]1C(=O)N[C@H](C(=O)N[C@@H](CC(N)=O)C(=O)N[C@H](C(=O)NCC(=O)N[C@@H](CO)C(=O)N[C@@H](CC(N)=O)C(=O)N[C@H](C(=O)N[C@@H](Cc1ccc(O)cc1)C(N)=O)[C@@H](C)O)C(C)C)[C@@H](C)O)C(C)C [rIAPP, reference compound]

Compound: FLPNF
concentration required to reduce hIAPP‐induced cytotoxicity [3]: approximately 200 µM

Compound: D‐ANFLVH
molar excess relative to IAPP required to prevent toxicity [4]: ten‐fold molar excess

Compound: CC[C@H](C)[C@H](NC(=O)CNC(=O)[C@@H]1CCCN1C(=O)[C@H](Cc1c[nH]c2ccccc12)NC(=O)[C@H](Cc1c[nH]c2ccccc12)NC(=O)[C@H](CCCCN)NC(=O)[C@H](Cc1c[nH]c2ccccc12)NC(C)=O)C(=O)N[C@@H](Cc1ccccc1)C(N)=O [QBP1] (Ac-WKWWPGIF-NH2)
effect of peptide alone on metabolic activity [2, 9]: no significant effect

Compound: CC[C@H](C)[C@H](NC(=O)CNC(=O)[C@@H]1CCCN1C(=O)[C@H](Cc1c[nH]c2ccccc12)NC(=O)[C@H](Cc1c[nH]c2ccccc12)NC(=O)[C@H](CCCCN)NC(=O)[C@H](Cc1c[nH]c2ccccc12)NC(=O)CNC(=O)CNC(=O)[C@H](CCCCN)NC(=O)[C@H](CCCCN)NC(=O)[C@H](Cc1c[nH]c2ccccc12)NC(=O)[C@H](CCCCN)NC(=O)[C@H](CCSC)NC(=O)[C@H](CCCNC(=N)N)NC(=O)[C@H](CCCNC(=N)N)NC(=O)[C@H](CC(N)=O)NC(=O)[C@H](CCC(N)=O)NC(=O)[C@H](Cc1ccccc1)NC(=O)[C@H](Cc1c[nH]c2ccccc12)NC(=O)[C@@H](NC(=O)[C@H](CCCCN)NC(=O)[C@@H](NC(=O)[C@H](CCC(N)=O)NC(=O)[C@H](CCCNC(=N)N)NC(=O)CCCC[C@@H]1SC[C@@H]2NC(=O)N[C@@H]21)[C@@H](C)CC)[C@@H](C)CC)C(=O)N[C@@H](Cc1ccccc1)C(=O)O [Antp‐QBP1]
number of intracellular Red‐647 fluorescent spots per cell vs hIAPP alone ([5]; 10 µM Antp‐QBP1 alone or with 10 µM hIAPP): significantly increased | anti‐biotin (Red‐647) fluorescence intensity per cell ([5]; 10 µM Antp‐QBP1 alone): 400–600 a.u./cell | anti‐biotin (Red‐647) fluorescence intensity per cell ([5]; 10 µM Antp‐QBP1 with 10 µM hIAPP oligomers): ~200 a.u./cell | intracellular delivery by immunostaining [6]: efficient intracellular delivery | effect of peptide alone on ATP levels [7]: did not alter ATP levels | effect of peptide alone on metabolic activity [2, 9]: no significant effect | effect on ATP levels in control (Ct) cells [8]: did not alter ATP levels
